pIC50: −log10 of the molar value.
These molecules were tested against Kelch-like ECH-associated protein 1 (Homo sapiens, UniProt Q14145) (assay: Inhibition of FITC-9mer Nrf2 peptide binding to recombinant human KEAP1 Kelch domain (321 to 609 residues) expressed in Escherichia coli BL21 (DE3) by fluorescence polarization assay).
Sequence of Kelch-like ECH-associated protein 1 (Q14145 whole entry, the tested form may be a part): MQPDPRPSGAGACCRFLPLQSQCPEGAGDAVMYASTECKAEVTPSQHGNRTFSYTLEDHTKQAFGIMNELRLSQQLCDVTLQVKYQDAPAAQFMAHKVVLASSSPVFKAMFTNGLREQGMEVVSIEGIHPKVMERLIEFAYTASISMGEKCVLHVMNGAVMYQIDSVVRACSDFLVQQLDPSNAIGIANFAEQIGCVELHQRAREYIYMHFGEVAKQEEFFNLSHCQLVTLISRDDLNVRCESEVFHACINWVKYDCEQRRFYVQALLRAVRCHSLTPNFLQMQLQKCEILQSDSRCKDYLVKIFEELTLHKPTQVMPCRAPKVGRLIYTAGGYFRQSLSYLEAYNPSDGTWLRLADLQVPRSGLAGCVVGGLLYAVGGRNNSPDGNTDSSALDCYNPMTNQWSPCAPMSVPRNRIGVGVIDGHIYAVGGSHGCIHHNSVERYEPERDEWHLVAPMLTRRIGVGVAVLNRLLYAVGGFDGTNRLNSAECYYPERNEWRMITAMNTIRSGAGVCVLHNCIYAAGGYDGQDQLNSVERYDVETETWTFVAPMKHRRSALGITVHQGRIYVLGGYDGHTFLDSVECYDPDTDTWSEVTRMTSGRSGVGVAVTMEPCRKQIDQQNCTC

pIC50 | SMILES
< 4.60 | COc1ccc(S(=O)(=O)Cc2ccc(CS(=O)(=O)c3ccc(OC)cc3)c3ccccc23)cc1
< 4.60 | COc1ccc(S(=O)(=O)Nc2ccc(CCC(=O)O)c3ccccc23)cc1
< 4.60 | COc1ccc(S(=O)(=O)Nc2ccc(/C=C/C(=O)O)c3ccccc23)cc1
